Test results from patent US12398107B2, “Fungicidal nitroanilino substituted pyrazoles” (FMC Corporation, priority 2018, dated 2025).

Key:
Assay type in all cases: in vivo
Septoria tritici = test: Test A: wheat leaf blotch, preventive spray on wheat seedlings; conditions: 50 ppm, 100 = 100% disease control, 0 = no control relative to controls
Description: (§1) General protocol for preparing test suspensions for Tests A-F: the test compounds were first dissolved in acetone in an amount equal to 3% of the final volume and then suspended at the desired concentration (in ppm) in acetone and purified water (50/50 mix by volume) containing 250 ppm of the surfactant PEG400 (polyhydric alcohol esters). The resulting test suspensions were then used in Tests A-F. The test solution was sprayed to the point of run-off on wheat seedlings. The following day the seedlings were inoculated with a spore suspension of Septoria tritici (the causal agent of wheat leaf blotch) and incubated in a saturated atmosphere at 24° C. for 48 h, and then moved to a growth chamber at 20° C. for 17 days, after which time disease ratings were made. A rating of 100 indicates 100% disease control and a rating of 0 indicates no disease control (relative to the controls). A dash (-) indicates the compound was not tested.

[1] = tested on: Puccinia recondita f. sp. tritici; test: Test B: wheat leaf rust, preventive spray on wheat seedlings; conditions: 50 ppm, 100 = 100% disease control, 0 = no control relative to controls
Description: as §1, with “Puccinia recondita f. sp.” for “Septoria”, “rust)” for “blotch)”, “20°” for “24°”, “24” for “48”, “7” for “17”

[2] = tested on: Blumeria graminis f. sp. tritici; test: Test C: wheat powdery mildew, preventive spray on wheat seedlings; conditions: 50 ppm, rated after 8 days, 100 = 100% disease control, 0 = no control
Description: General protocol for preparing test suspensions for Tests A-F: the test compounds were first dissolved in acetone in an amount equal to 3% of the final volume and then suspended at the desired concentration (in ppm) in acetone and purified water (50/50 mix by volume) containing 250 ppm of the surfactant PEG400 (polyhydric alcohol esters). The resulting test suspensions were then used in Tests A-F. The test suspension was sprayed to the point of run-off on wheat seedlings. The following day the seedlings were inoculated with a spore dust of Blumeria graminis f. sp. tritici, (also known as Erysiphe graminis f. sp. tritici, the causal agent of wheat powdery mildew) and incubated in a growth chamber at 20° C. for 8 days, after which time visual disease ratings were made. A rating of 100 indicates 100% disease control and a rating of 0 indicates no disease control (relative to the controls). A dash (-) indicates the compound was not tested.

Phakopsora pachyrhizi = test: Test D: Asian soybean rust, preventive spray on soybean seedlings; conditions: 50 ppm, 100 = 100% disease control, 0 = no control
Description: General protocol for preparing test suspensions for Tests A-F: the test compounds were first dissolved in acetone in an amount equal to 3% of the final volume and then suspended at the desired concentration (in ppm) in acetone and purified water (50/50 mix by volume) containing 250 ppm of the surfactant PEG400 (polyhydric alcohol esters). The resulting test suspensions were then used in Tests A-F.
The test solution was sprayed to the point of run-off on soybean seedlings. The following day the seedlings were inoculated with a spore suspension of Phakopsora pachyrhizi (the causal agent of Asian soybean rust) and incubated in a saturated atmosphere at 22° C. for 24 h and then moved to a growth chamber at 22° C. for 8 days, after which time visual disease ratings were made.
A rating of 100 indicates 100% disease control and a rating of 0 indicates no disease control (relative to the controls). A dash (-) indicates the compound was not tested.

Botrytis cinerea = test: Test E: tomato Botrytis, preventive spray on tomato seedlings; conditions: 50 ppm, 100 = 100% disease control, 0 = no control
Description: (§2) General protocol for preparing test suspensions for Tests A-F: the test compounds were first dissolved in acetone in an amount equal to 3% of the final volume and then suspended at the desired concentration (in ppm) in acetone and purified water (50/50 mix by volume) containing 250 ppm of the surfactant PEG400 (polyhydric alcohol esters). The resulting test suspensions were then used in Tests A-F. The test suspension was sprayed to the point of run-off on tomato seedlings. The following day the seedlings were inoculated with a spore suspension of Botrytis cinerea (the causal agent of tomato Botrytis) and incubated in a saturated atmosphere at 20° C. for 48 h, and then moved to a growth chamber at 24° C. for 3 days, after which time visual disease ratings were made. A rating of 100 indicates 100% disease control and a rating of 0 indicates no disease control (relative to the controls). A dash (-) indicates the compound was not tested.

Alternaria solani = test: Test F: tomato early blight, preventive spray on tomato seedlings; conditions: 50 ppm, 100 = 100% disease control, 0 = no control
Description: as §2, with “Alternaria solani” for “Botrytis cinerea”, “early blight)” for “Botrytis)”, “27°” for “20°”, “20°” for “24°”

COc1ccc(-c2c(C)nn(C)c2Nc2c(F)cccc2[N+](=O)[O-])c(Cl)c1 [Compound 27]
Test A disease control rating (wheat leaf blotch) (Septoria tritici): 100% | Test B disease control rating (wheat leaf rust) [1]: 100% | Test C disease control rating (wheat powdery mildew) [2]: 91% | Test D disease control rating (Asian soybean rust) (Phakopsora pachyrhizi): 87% | Test E disease control rating (tomato Botrytis) (Botrytis cinerea): 100% | Test F disease control rating (tomato early blight) (Alternaria solani): 99%

Cc1nn(C)c(Nc2ccc(OC(F)F)cc2[N+](=O)[O-])c1-c1ccc(F)cc1Cl [Compound 28]
Test A disease control rating (wheat leaf blotch) (Septoria tritici): 91% | Test B disease control rating (wheat leaf rust) [1]: 68% | Test C disease control rating (wheat powdery mildew) [2]: 69% | Test D disease control rating (Asian soybean rust) (Phakopsora pachyrhizi): 0% | Test E disease control rating (tomato Botrytis) (Botrytis cinerea): 99% | Test F disease control rating (tomato early blight) (Alternaria solani): 0%

Cc1nn(C)c(Nc2ccc(OCC#N)cc2[N+](=O)[O-])c1-c1ccc(F)cc1Cl [Compound 29]
Test A disease control rating (wheat leaf blotch) (Septoria tritici): 97% | Test B disease control rating (wheat leaf rust) [1]: 98% | Test C disease control rating (wheat powdery mildew) [2]: 87% | Test D disease control rating (Asian soybean rust) (Phakopsora pachyrhizi): 81% | Test E disease control rating (tomato Botrytis) (Botrytis cinerea): 99% | Test F disease control rating (tomato early blight) (Alternaria solani): 26%

Cc1cc(Cl)c(Nc2c(-c3ccc(F)cc3Cl)c(C)nn2C)c([N+](=O)[O-])c1 [Compound 31]
Test A disease control rating (wheat leaf blotch) (Septoria tritici): 100% | Test B disease control rating (wheat leaf rust) [1]: 100% | Test C disease control rating (wheat powdery mildew) [2]: 100% | Test D disease control rating (Asian soybean rust) (Phakopsora pachyrhizi): 98% | Test E disease control rating (tomato Botrytis) (Botrytis cinerea): 99% | Test F disease control rating (tomato early blight) (Alternaria solani): 76%

Cc1nn(C)c(Nc2cc(F)c(F)cc2[N+](=O)[O-])c1-c1ccc(F)cc1Cl [Compound 32]
Test A disease control rating (wheat leaf blotch) (Septoria tritici): 93% | Test B disease control rating (wheat leaf rust) [1]: 85% | Test C disease control rating (wheat powdery mildew) [2]: 56% | Test D disease control rating (Asian soybean rust) (Phakopsora pachyrhizi): 98% | Test E disease control rating (tomato Botrytis) (Botrytis cinerea): 99% | Test F disease control rating (tomato early blight) (Alternaria solani): 0%

Cc1cc(Cl)cc([N+](=O)[O-])c1Nc1c(-c2ccc(F)cc2Cl)c(C)nn1C [Compound 33]
Test A disease control rating (wheat leaf blotch) (Septoria tritici): 100% | Test B disease control rating (wheat leaf rust) [1]: 100% | Test C disease control rating (wheat powdery mildew) [2]: 99% | Test D disease control rating (Asian soybean rust) (Phakopsora pachyrhizi): 92% | Test E disease control rating (tomato Botrytis) (Botrytis cinerea): 99% | Test F disease control rating (tomato early blight) (Alternaria solani): 85%

Cc1nn(C)c(Nc2cccc(Cl)c2[N+](=O)[O-])c1-c1ccc(F)cc1Cl [Compound 34]
Test A disease control rating (wheat leaf blotch) (Septoria tritici): 100% | Test B disease control rating (wheat leaf rust) [1]: 54% | Test C disease control rating (wheat powdery mildew) [2]: 13% | Test D disease control rating (Asian soybean rust) (Phakopsora pachyrhizi): 0% | Test E disease control rating (tomato Botrytis) (Botrytis cinerea): 71% | Test F disease control rating (tomato early blight) (Alternaria solani): 0%

COc1ccc(-c2c(C)nn(C)c2Nc2c(Cl)cccc2[N+](=O)[O-])c(C)c1 [Compound 35]
Test A disease control rating (wheat leaf blotch) (Septoria tritici): 99% | Test B disease control rating (wheat leaf rust) [1]: 85% | Test C disease control rating (wheat powdery mildew) [2]: 0% | Test D disease control rating (Asian soybean rust) (Phakopsora pachyrhizi): 0% | Test E disease control rating (tomato Botrytis) (Botrytis cinerea): 0% | Test F disease control rating (tomato early blight) (Alternaria solani): 0%

Cc1nn(C)c(Nc2ccc(OCC(F)F)cc2[N+](=O)[O-])c1-c1ccc(F)cc1Cl [Compound 36]
Test A disease control rating (wheat leaf blotch) (Septoria tritici): 100% | Test B disease control rating (wheat leaf rust) [1]: 89% | Test C disease control rating (wheat powdery mildew) [2]: 56% | Test D disease control rating (Asian soybean rust) (Phakopsora pachyrhizi): 25% | Test E disease control rating (tomato Botrytis) (Botrytis cinerea): 100% | Test F disease control rating (tomato early blight) (Alternaria solani): 0%

Cc1nn(C)c(Nc2c(Cl)cc(Cl)cc2[N+](=O)[O-])c1-c1ccc(F)cc1Br [Compound 37]
Test A disease control rating (wheat leaf blotch) (Septoria tritici): 100% | Test B disease control rating (wheat leaf rust) [1]: 100% | Test C disease control rating (wheat powdery mildew) [2]: 98% | Test D disease control rating (Asian soybean rust) (Phakopsora pachyrhizi): 0% | Test E disease control rating (tomato Botrytis) (Botrytis cinerea): 88% | Test F disease control rating (tomato early blight) (Alternaria solani): 78%

Cc1nn(C)c(Nc2c(Cl)cccc2[N+](=O)[O-])c1-c1c(F)cccc1Cl [Compound 38]
Test A disease control rating (wheat leaf blotch) (Septoria tritici): 100% | Test B disease control rating (wheat leaf rust) [1]: 99% | Test C disease control rating (wheat powdery mildew) [2]: 95% | Test D disease control rating (Asian soybean rust) (Phakopsora pachyrhizi): 0% | Test E disease control rating (tomato Botrytis) (Botrytis cinerea): 88% | Test F disease control rating (tomato early blight) (Alternaria solani): 0%

Cc1nn(C)c(Nc2c(F)cc(F)cc2[N+](=O)[O-])c1-c1c(F)cccc1Cl [Compound 39]
Test A disease control rating (wheat leaf blotch) (Septoria tritici): 100% | Test B disease control rating (wheat leaf rust) [1]: 100% | Test C disease control rating (wheat powdery mildew) [2]: 99% | Test D disease control rating (Asian soybean rust) (Phakopsora pachyrhizi): 73% | Test E disease control rating (tomato Botrytis) (Botrytis cinerea): 88% | Test F disease control rating (tomato early blight) (Alternaria solani): 99%

Cc1cc(F)c(Nc2c(-c3ccc(F)cc3Br)c(C)nn2C)c([N+](=O)[O-])c1 [Compound 40]
Test A disease control rating (wheat leaf blotch) (Septoria tritici): 100% | Test B disease control rating (wheat leaf rust) [1]: 100% | Test C disease control rating (wheat powdery mildew) [2]: 100% | Test D disease control rating (Asian soybean rust) (Phakopsora pachyrhizi): 82% | Test E disease control rating (tomato Botrytis) (Botrytis cinerea): 98% | Test F disease control rating (tomato early blight) (Alternaria solani): 100%

Cc1nn(C)c(Nc2c(Cl)cccc2[N+](=O)[O-])c1-c1ccc(F)cc1Br [Compound 41]
Test A disease control rating (wheat leaf blotch) (Septoria tritici): 100% | Test B disease control rating (wheat leaf rust) [1]: 100% | Test C disease control rating (wheat powdery mildew) [2]: 94% | Test D disease control rating (Asian soybean rust) (Phakopsora pachyrhizi): 77% | Test E disease control rating (tomato Botrytis) (Botrytis cinerea): 77% | Test F disease control rating (tomato early blight) (Alternaria solani): 0%

Cc1cccc([N+](=O)[O-])c1Nc1c(-c2ccc(F)cc2Br)c(C)nn1C [Compound 42]
Test A disease control rating (wheat leaf blotch) (Septoria tritici): 100% | Test B disease control rating (wheat leaf rust) [1]: 100% | Test C disease control rating (wheat powdery mildew) [2]: 96% | Test D disease control rating (Asian soybean rust) (Phakopsora pachyrhizi): 0% | Test E disease control rating (tomato Botrytis) (Botrytis cinerea): 91% | Test F disease control rating (tomato early blight) (Alternaria solani): 0%

Cc1nn(C)c(Nc2c(Cl)cc(F)cc2[N+](=O)[O-])c1-c1ccc(F)cc1Br [Compound 43]
Test A disease control rating (wheat leaf blotch) (Septoria tritici): 100% | Test B disease control rating (wheat leaf rust) [1]: 100% | Test C disease control rating (wheat powdery mildew) [2]: 97% | Test D disease control rating (Asian soybean rust) (Phakopsora pachyrhizi): 65% | Test E disease control rating (tomato Botrytis) (Botrytis cinerea): 96% | Test F disease control rating (tomato early blight) (Alternaria solani): 64%

Cc1nn(C)c(Nc2ccc(F)cc2[N+](=O)[O-])c1-c1c(F)cccc1Cl [Compound 44]
Test A disease control rating (wheat leaf blotch) (Septoria tritici): 100% | Test B disease control rating (wheat leaf rust) [1]: 99% | Test C disease control rating (wheat powdery mildew) [2]: 98% | Test D disease control rating (Asian soybean rust) (Phakopsora pachyrhizi): 0% | Test E disease control rating (tomato Botrytis) (Botrytis cinerea): 95% | Test F disease control rating (tomato early blight) (Alternaria solani): 46%
